Key:
[1] = tested on: HT29; assay: CNT with 5-FU with or without bevacizumab, 2D, spheroid, 3D (Example 5); type: cell-based, human; settings: bevacizumab 2 μg per well in the combination, 72 hours
Description: Moreover, for comparison, in place of the above cell structures, structures were produced by culturing cancer cells so as to form a single layer in a general culture container (2D method), and spheroids were produced by spheroid culture of a mixture of 2×10^6 NHDF, 3×10^4 HUVEC, and 2×10^4 cancer cells (spheroid method).

[2] = tested on: HCT116; assay: as above; type: cell-based, human; settings: bevacizumab 2 μg per well in the combination, 72 hours
[3] = tested on: human lung adenocarcinoma cell line A549; assay: CNT with 5-FU with or without bevacizumab, lung stromal cells NHLF/HMVEC-L, flow cytometer (Example 10); type: cell-based; settings: 5-FU 100 μM, bevacizumab 2 μg per well in the combination, 72 hours
Experimental: (§1) Thereafter, 400 μL of Fixation/Permilization solution (554722, produced by BD Bioscience) was added for fixation at 4° C. for 30 minutes, and the liquid component was removed. Then, 400 μL of Perm/Wash buffer attached to the kit was added, and centrifugation was performed at room temperature at 1120×g for 5 minutes. Thereafter, a primary antibody Monoclonal Mouse Anti-human Cytokeratin 7 (M7018, produced by DAKO) diluted with 5% FBS-containing PBS was added and allowed to react at 4° C. for 30 minutes. Then, the liquid component was removed, and washing was performed twice using Perm/Wash buffer attached to the kit. A secondary antibody Goat anti-Mouse IgG1 Cross-Adsorbed Secondary Antibody, Alexa Fluor 546 (A-11030, produced by Thermo Fischer Scientific) diluted with 5% FBS-containing PBS was added and allowed to react at 4° C. for 30 minutes. Thereafter, the liquid component was removed, washing was performed twice using Perm/Wash buffer attached to the kit, and the resultant was resuspended in 350 μL of 5% FBS-containing PBS.
(§2) The number of cells emitting fluorescence in the suspension after fixation and staining was counted as viable cancer cells. The cell count was performed using a flow cytometer (produced by Sony).

[4] = tested on: human lung adenocarcinoma cell line A549; assay: CNT with 5-FU with or without bevacizumab, NHDF/HUVEC cell structure, flow cytometer (Example 11); type: cell-based; settings: 3D (NHDF, HUVEC), bevacizumab 2 μg per well in the combination, 72 hours
Experimental: as §1, §2

[5] = tested on: human colon cancer cell line HT29; assay: CNT (remaining viable cell rate) with doxorubicin, 2D cultures vs 3D cell structures (Example 2); type: cell-based; settings: doxorubicin 10 μM; for CNT (%) Average value: 72 hours
Description: The anti-cancer drug to be assessed was doxorubicin (product number: 046-21523, produced by Wako Pure Chemical Industries, Ltd.).
After termination of the culture, cell structures in which a cancer cell layer was laminated on a layer having a vascular network structure were obtained.
Moreover, for comparison, in place of the above cell structures, structures were constructed by culturing cancer cells so as to form a single layer in a general culture container (2D method), and the resulting 2D cultures were similarly cultured in the presence of doxorubicin. A vascular network was not formed in the obtained 2D cultures even when cancer cells and vascular endothelial cells were made to coexist.
Next, a suitable amount of tris buffer solution (50 mM, pH: 7.4) was added to the Transwell cell culture insert, and the liquid component was then removed. This series of processes was repeated 3 times. […] Thereafter, all of the solution was collected, and transferred to a 1.5-mL collection tube to which 300 μL of 0.25% trypsin-EDTA solution (produced by Invitrogen) had been previously added. […] Thereafter, all of the solution was collected, and transferred to a 1.5-mL collection tube.

[6] = tested on: HT29; assay: CNT with doxorubicin, vascular network in layer shape vs scattered (Example 3); type: cell-based, human; settings: doxorubicin 10 μM, 72 hours
[7] = tested on: HT29; assay: CNT with doxorubicin, cell structures with or without semipermeable membrane (Example 9); type: cell-based, human; settings: doxorubicin 10 μM, 72 hours
Description: The cell structures containing a cell layer containing cancer cells and a cell layer having a vascular network structure used herein were cell structures containing a cell layer in which two types of cells, i.e., NHDF and HUVEC, constituted a multilayer, and a cancer cell layer formed from HT29.
Separately, 2×10^4 HT29 was suspended in a suitable amount of culture medium to prepare a cancer cell suspension (step (a)). The HT29 used was previously fluorescently labeled (product number: PKH67GL, produced by SIGMA).
A cell structure 2 was obtained in the same manner as in the cell structure 1, except that a semipermeable membrane with a pore size of 0.4 μm was placed on a structure containing stromal cells, and a cancer cell suspension was seeded on the semipermeable membrane to form a cancer cell layer. […] In the cell structure 2, the cells constituting the cancer cell layer were completely separated from the cells constituting the stromal cell layer.
A cell structure 3 was obtained in the same manner as in the cell structure 1, except that a cancer cell suspension was first seeded in a Transwell cell culture insert to form a cancer cell layer, a semipermeable membrane with a pore size of 0.4 μm was placed on the cancer cell layer, and a stromal cell suspension was then seeded on the semipermeable membrane to form a stromal cell layer. […] In the cell structure 3, the cells constituting the cancer cell layer were completely separated from the cells constituting the stromal cell layer.
(§3) A cell structure 4 was obtained in the same manner as in the cell structure 2, except that a semipermeable membrane with a pore size of 8 μm was used. […] In the cell structure 4, the cells constituting the cancer cell layer and the cells constituting the stromal cell layer extended to be in contact with each other in the penetration part of the semipermeable membrane.
as §3, with “5” for “4”, “3,” for “2,”, “5,” for “4,”

[8] = tested on: breast cancer cell line MCF-7; assay: CNT with doxorubicin, 2D vs 3D (Example 14); type: cell-based, human; settings: for CNT (%) Average value: 72 hours
Description: The general cytotoxic anti-cancer drug to be assessed was doxorubicin (product number: 046-21523, produced by Wako Pure Chemical Industries, Ltd.).

O=c1[nH]cc(F)c(=O)[nH]1 [5-FU]
CNT (%) Average value ([1]; 2D, 5-FU 100 μM): 54.2%
CNT (%) Average value ([1]; 2D, 5-FU 1 mM): 25.8%
CNT (%) Average value ([1]; 3D, 5-FU 1 mM): 75.0%
CNT (%) Average value ([1]; Spheroid, 5-FU 100 μM): 57.5%
CNT (%) Average value ([1]; Spheroid, 5-FU 1 mM): 44.8%
CNT (%) Average value ([2]; 2D, 5-FU 100 μM): 38.9%
CNT (%) Average value ([2]; 2D, 5-FU 1 mM): 15.3%
CNT (%) Average value ([2]; 3D, 5-FU 100 μM): 86.9%
CNT (%) Average value ([2]; Spheroid, 5-FU 100 μM): 62.3%
CNT (%) Average value ([2]; Spheroid, 5-FU 1 mM): 27.7%
CNT (%) Average value ([3]; 2D): 37.7%
CNT (%) Average value ([3]; 3D (NHLF, HMVEC-L)): 72.9%
CNT (%) Average value ([4]; 5-FU 100 μM): 28.8%
CNT (%) Average value ([4]; 5-FU 1 mM): 7.7%

COc1cccc2c1C(=O)c1c(O)c3c(c(O)c1C2=O)C[C@@](O)(C(=O)CO)C[C@@H]3O[C@H]1C[C@H](N)[C@H](O)[C@H](C)O1 [Doxorubicin, doxorubicin]
CNT (%) Average value ([5]; 2D, HT29 2 × 10^4 only): 6.87%
CNT (%) Average value ([5]; 2D, HUVEC 2 × 10^4 + HT29 2 × 10^4): 21.40%
CNT (%) Average value ([5]; 2D, NHDF 2 × 10^4 + HT29 2 × 10^4): 13.20%
effectiveness in 2D culture co-cultured with fibroblasts relative to 2D culture co-cultured with vascular endothelial cells ([5]; 2D): about two
CNT of the cell structures relative to 2D culture ([5]; 3D cell structures vs 2D culture of only cancer cells and 2D culture of cancer cells and fibroblasts): at least 5 times
CNT (%) Average value ([5]; 3D, NHDF 1 × 10^6 + HUVEC 3 × 10^4 + HT29 2 × 10^4): 28.22%
CNT (%) Average value ([5]; 3D, NHDF 2 × 10^6 + HT29 2 × 10^4, no vascular network): 29.77%
CNT (%) Average value ([5]; 3D, NHDF 2 × 10^6 + HUVEC 3 × 10^4 + HT29 2 × 10^4): 31.22%
CNT (%) Average value ([6]; cell structure in which a vascular network structure is formed in a layer shape): 31.22%
CNT (%) Average value ([6]; cell structure in which a vascular network structure is scattered in the entire structure): 31.06%
CNT (%) Average value ([7]; Cell structure 1 (stromal cell layer - cancer cell layer)): 31.22%
CNT (%) Average value ([7]; Cell structure 2 (stromal cell layer - semipermeable membrane (0.4 μm) - cancer cell layer)): 30.83%
CNT (%) Average value ([7]; Cell structure 3 (cancer cell layer - semipermeable membrane (0.4 μm) - stromal cell layer)): 32.68%
CNT (%) Average value ([7]; Cell structure 4 (stromal cell layer - semipermeable membrane (8 μm) - cancer cell layer)): 31.47%
CNT (%) Average value ([7]; Cell structure 5 (cancer cell layer - semipermeable membrane (8 μm) - stromal cell layer)): 33.03%
CNT (%) Average value ([8]; 2D, Doxorubicin 1 μM): 38.9%
CNT (%) Average value ([8]; 2D, Doxorubicin 10 μM): 12.1%
CNT (%) Average value ([8]; 3D, Doxorubicin 1 μM): 78.4%
CNT (%) Average value ([8]; 3D, Doxorubicin 10 μM): 48.9%
drug sensitivity, cell structures compared with 2D cultures ([8]; regardless of the doxorubicin concentration): drug sensitivity was lower
